Target: T1, mAChR M4 (Homo sapiens, UniProt P08173)
T1 construct: expressed in transfected cells; host or cells: CHO-K1 cells stably transfected with M4 cDNA and chimeric G-protein Gqi5
T1 sequence (P08173 1-479): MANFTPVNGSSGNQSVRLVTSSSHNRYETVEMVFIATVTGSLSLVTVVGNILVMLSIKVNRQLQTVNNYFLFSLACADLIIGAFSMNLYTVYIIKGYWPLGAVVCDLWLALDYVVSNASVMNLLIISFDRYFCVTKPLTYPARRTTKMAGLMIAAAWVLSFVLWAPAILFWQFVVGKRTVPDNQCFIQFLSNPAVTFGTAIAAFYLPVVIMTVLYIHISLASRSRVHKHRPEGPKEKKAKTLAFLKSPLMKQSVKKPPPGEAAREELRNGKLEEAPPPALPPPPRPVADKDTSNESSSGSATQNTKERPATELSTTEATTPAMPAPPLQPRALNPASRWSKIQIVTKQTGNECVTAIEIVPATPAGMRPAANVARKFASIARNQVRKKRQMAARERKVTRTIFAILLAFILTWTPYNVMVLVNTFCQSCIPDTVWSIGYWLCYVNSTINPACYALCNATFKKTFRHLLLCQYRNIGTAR
Assay: mAChR M4 cell-based functional assay (calcium mobilization, potentiation of EC20 acetylcholine response)
Conditions: for Emax at 30 µM: % ACh maximum at 30 μM; for EC50: mAChR M4 cell-based functional assay, >10,000 estimated for low potency compounds without plateau, read-out: EC50

With `Cc1nnc2sc(C(=O)NCc3ccc(CN(C)C)cc3)c(N)c2c1C` [Example B328] the Emax at 30 µM was 73% and the EC50 was 0.13 µM.

Work on `COc1c(F)cc(CNC(=O)c2sc3nnc(C)c(C)c3c2N)cc1F` [Example B313] yielded an Emax at 30 µM of 84% and an EC50 of 0.018 µM.

With `Cc1nnc2sc(C(=O)NCc3ccc(C(C)(O)C(F)(F)F)cc3)c(N)c2c1C` (stereo not shown) [Example B106] the Emax at 30 µM was 71% and the EC50 was 0.02 µM.

In the case of `Cc1nnc2sc(C(=O)N3CCC4(CCCC4)C3)c(N)c2c1C` [Example B381], the Emax at 30 µM is reported as 63% and the EC50 is reported as 0.71 µM.

`COc1ccc(-c2ccc(CNC(=O)c3sc4nnc(C)c(C)c4c3N)cc2)cn1` [Example B486] gave an Emax at 30 µM of 61% and an EC50 of 0.23 µM.

Molecule `COc1ccc(C2(NC(=O)c3sc4nnc(C)c(C)c4c3N)CC2)cc1` [Example B301] has an Emax at 30 µM of 48% and an EC50 of 6.4 µM.

`Cc1nnc2sc(C(=O)N3CC4CN(C(=O)CC5CCCCC5)CC4C3)c(N)c2c1C` (stereo not shown) [Example B386] gave an Emax at 30 µM of 44% and an EC50 of 0.82 µM.

Molecule `Cc1nnc2sc(C(=O)NCC(C)(C)O)c(N)c2c1C` [Example B25] has an Emax at 30 µM of 56% and an EC50 of over 10 µM.

For `Cc1nnc2sc(C(=O)NCc3ccc(-c4cncc5ccccc45)cc3)c(N)c2c1C` [Example B503], the Emax at 30 µM was 56% and the EC50 was 1.1 µM.

For `Cc1nnc2sc(C(=O)N3CC(F)(c4ccc(Cl)cc4)C3)c(N)c2c1C` [Example B295], the Emax at 30 µM was 54% and the EC50 was over 10 µM.

In the case of `CS(=O)(=O)c1ccc(CNC(=O)c2sc3nnc(Cl)cc3c2N)cc1` [Example B76], the Emax at 30 µM is reported as 55% and the EC50 is reported as 0.49 µM.

`Cc1nnc2sc(C(=O)NCc3ccc(O)cc3)c(N)c2c1C` [Example B95] gave an Emax at 30 µM of 66% and an EC50 of 0.047 µM.

With `Cc1nnc2sc(C(=O)N3CC(NC(=O)Oc4ccccc4)C3)c(N)c2c1C` [Example B167] the Emax at 30 µM was 65% and the EC50 was 0.47 µM.

`Nc1c(C(=O)NCc2cccc(F)c2F)sc2nnccc12` [Example B18] was tested, and the Emax at 30 µM was 60% and the EC50 was over 10 µM.

Molecule `Cc1cc(-c2ccc(CNC(=O)c3sc4nnc(C)c(C)c4c3N)cc2)cnc1F` [Example B484] has an Emax at 30 µM of 63% and an EC50 of 0.11 µM.

`Cc1nc(C)c(S(=O)(=O)N2CC(NC(=O)c3sc4nnc(C)c(C)c4c3N)C2)s1` [Example B103] showed an Emax at 30 µM of 69% and an EC50 of 0.094 µM.

Work on `CC(O)(c1ccc(CNC(=O)c2sc3nnc4c(c3c2N)CCCC4)cc1)C(F)(F)F` (stereo not shown) [Example B188] yielded an Emax at 30 µM of 56% and an EC50 of 0.9 µM.

For `Cc1nnc2sc(C(=O)N3C[C@@H]4C[C@@H]3CN4S(C)(=O)=O)c(N)c2c1C` [Example B267], the Emax at 30 µM was 51% and the EC50 was 5.1 µM.

With `Cc1nnc2sc(C(=O)NCc3ccc4[nH]ccc4c3)c(N)c2c1C` [Example B195] the Emax at 30 µM was 62% and the EC50 was 0.065 µM.

For `Cc1nnc2sc(C(=O)N3C[C@@H]4C[C@@H]3CN4C(=O)c3ccccc3)c(N)c2c1C` [Example B263], the Emax at 30 µM was 41% and the EC50 was over 10 µM.

With `Cc1nnc2sc(C(=O)NC3CN(c4nccs4)C3)c(N)c2c1C` [Example B430] the Emax at 30 µM was 58% and the EC50 was 2.1 µM.

With `Cc1nnc2sc(C(=O)NCc3ccc(=O)n(C)c3)c(N)c2c1C` [Example B444] the Emax at 30 µM was 65% and the EC50 was over 10 µM.

`Cc1nnc2sc(C(=O)N3CC(F)(c4ccccn4)C3)c(N)c2c1C` [Example B303] was tested, and the Emax at 30 µM was 57% and the EC50 was 0.5 µM.

Work on `COc1ccc(C2CC2N(C)C(=O)c2sc3nnc(C)c(C)c3c2N)cc1` (stereo not shown) [Example B79] yielded an Emax at 30 µM of 35% and an EC50 of over 10 µM.

`Cc1nnc2sc(C(=O)NC3CCN(c4ccncc4)C3)c(N)c2c1C` (stereo not shown) [Example B266] gave an Emax at 30 µM of 70% and an EC50 of 0.22 µM.

Molecule `Cc1nnc2sc(C(=O)NC3CCOC3)c(N)c2c1C` (stereo not shown) [Example B35] has an Emax at 30 µM of 77% and an EC50 of 0.84 µM.

`Cc1nnc2sc(C(=O)N3CCC(NC(=O)C4CC4c4ccccc4)C3)c(N)c2c1C` (stereo not shown) [Example B254] gave an Emax at 30 µM of 65% and an EC50 of 1.4 µM.

For `Cc1nnc2sc(C(=O)N3CC(NS(=O)(=O)c4cccc5ncccc45)C3)c(N)c2c1C` [Example B180], the Emax at 30 µM was 43% and the EC50 was 1.1 µM.

`COc1ccc(C2CC2NC(=O)c2sc3nnc(C)c(C)c3c2N)cc1` (stereo not shown) [Example B30] gave an Emax at 30 µM of 76% and an EC50 of 0.014 µM.

With `Cc1nnc2sc(C(=O)N[C@@H]3CCN(S(C)(=O)=O)C3)c(N)c2c1C` [Example B77] the Emax at 30 µM was 53% and the EC50 was 3.5 µM.

With `Cc1nnc2sc(C(=O)NC3CN(S(C)(=O)=O)C3)c(N)c2c1C` [Example B80] the Emax at 30 µM was 68% and the EC50 was 0.21 µM.

`Cc1nnc2sc(C(=O)N3CCC(NS(=O)(=O)c4cccc(F)c4)C3)c(N)c2c1C` (stereo not shown) [Example B211] showed an Emax at 30 µM of 70% and an EC50 of 1.4 µM.

For `Cc1nnc2sc(C(=O)N3CC[C@H](F)C3)c(N)c2c1C` [Example B69], the Emax at 30 µM was 48% and the EC50 was over 10 µM.

`Cc1nnc2sc(C(=O)NCc3ccc(S(=O)(=O)C(C)(C)C)cc3)c(N)c2c1C` [Example B47] showed an Emax at 30 µM of 76% and an EC50 of 0.041 µM.

Molecule `Cc1ccc(S(=O)(=O)N2CCC(NC(=O)c3sc4nnc(C)c(C)c4c3N)C2)cc1` (stereo not shown) [Example B244] has an Emax at 30 µM of 79% and an EC50 of 0.58 µM.

`COc1ncccc1-c1ccc(CNC(=O)c2sc3nnc(C)c(C)c3c2N)cc1` [Example B456] was tested, and the Emax at 30 µM was 68% and the EC50 was 0.099 µM.

`Cc1nnc2sc(C(=O)N3CCC(c4ccccc4)C3)c(N)c2c1C` (stereo not shown) [Example B112] was tested, and the Emax at 30 µM was 61% and the EC50 was 0.63 µM.

For `Cc1nnc2sc(C(=O)NCc3ccc(CN4CCCC4)cc3)c(N)c2c1C` [Example B492], the Emax at 30 µM was 76% and the EC50 was 0.038 µM.

With `Cc1nnc2sc(C(=O)NCc3ccc(N4CCOCC4)cc3)c(N)c2c1C` [Example B327] the Emax at 30 µM was 67% and the EC50 was 0.12 µM.

`Cc1nnc2sc(C(=O)NC3CC3)c(N)c2c1C` [Example B8] showed an Emax at 30 µM of 97% and an EC50 of 0.26 µM.

`Cc1nnc2sc(C(=O)NC3CCN(S(=O)(=O)c4ccccc4OC(F)(F)F)C3)c(N)c2c1C` (stereo not shown) [Example B209] was tested, and the Emax at 30 µM was 68% and the EC50 was 0.31 µM.

For `COc1ccc(C(C)CNC(=O)c2sc3nnc(C)c(C)c3c2N)cc1` (stereo not shown) [Example B73], the Emax at 30 µM was 40% and the EC50 was 0.35 µM.

In the case of `Cc1nnc2sc(C(=O)NCCN(C)S(=O)(=O)c3ccccc3)c(N)c2c1C` [Example B375], the Emax at 30 µM is reported as 51% and the EC50 is reported as 4 µM.

In the case of `Cc1nnc2sc(C(=O)N3CC(NC(=O)CCc4ccccc4)C3)c(N)c2c1C` [Example B177], the Emax at 30 µM is reported as 53% and the EC50 is reported as 0.97 µM.

Work on `COc1ccccc1OC(=O)N1CC(NC(=O)c2sc3nnc(C)c(C)c3c2N)C1` [Example B376] yielded an Emax at 30 µM of 59% and an EC50 of 0.017 µM.

`Cc1nnc2sc(C(=O)Nc3ccncc3)c(N)c2c1C` [Example B38] showed an Emax at 30 µM of 54% and an EC50 of 0.6 µM.

`Cc1nnc2sc(C(=O)NC3CCN(C(=O)C4CC4c4ccccc4)C3)c(N)c2c1C` (stereo not shown) [Example B247] was tested, and the Emax at 30 µM was 73% and the EC50 was 0.39 µM.

In the case of `Cc1nc(C(F)(F)F)c(S(=O)(=O)N2CC(NC(=O)c3sc4nnc(C)c(C)c4c3N)C2)s1` [Example B101], the Emax at 30 µM is reported as 66% and the EC50 is reported as 0.084 µM.

With `Cc1nnc2sc(C(=O)N3CC(C4CCCCC4)C3)c(N)c2c1C` [Example B262] the Emax at 30 µM was 66% and the EC50 was 0.05 µM.

With `COc1ccc(C2(OC)CN(C(=O)c3sc4nnc(C)c(C)c4c3N)C2)cc1` [Example B290] the Emax at 30 µM was 45% and the EC50 was 0.44 µM.
